One may read the EC50 as the concentration at which the effect is half-maximal. As a reminder, the IC50 is the point on the concentration scale where inhibition reaches its midpoint. Lower therefore signals greater potency in that assay.

Each structure is given as a SMILES string. Where “and” joins values, the source holds several entries; their conditions need not be identical. Equal values may be shown once. Calls of active or inactive are those of the source.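 How the source made its calls: active means compounds giving half or more protection of infected cells from virus-caused growth loss, again on retest; inactive means the rest.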 Where a SMILES comes first, the peptide text is derived from it. Bridges are numbered along the chain shown (N, C = ends).

This assay deals with CEM cells HIV-1 protection, formazan growth assay. In words: NCI AIDS Antiviral Assay. Conditions: for IC50: measured here: growth of uninfected CEM cells. The gist of the method: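 Soluble formazan readout of cell growth; CEM cells ± HIV-1; 5 drug concs. ≥50% protection → retest; ≥50% again = moderately active; reproducible 100% = confirmed active.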

As to `O=C(N/N=C\c1cccnc1)c1ccncc1`, the EC50 was > 200 µM and the IC50 is > 200 µM.

As for `O=S(=O)(Cc1ccccc1)C(I)c1ccccc1` (centres undefined), the EC50 is > 69.2 µM and the IC50 stood at 13.8 µM.

Regarding `O=C(O)CNS(=O)(=O)c1ccc(NC(=O)c2ccccc2[N+](=O)[O-])cc1`, the outcome was inactive.

Consider `O=c1[nH]c2ccc(O)cc2o1`, for which the EC50 was > 200 µM and the IC50 is > 200 µM.

Consider `COC(=O)c1ccccc1CC1Cc2c(C)ccc(C)c2C1=O` (centres undefined), for which the EC50 is > 200 µM and the IC50 amounted to 34.7 µM.

With `CCOC(=O)/C=C/[C@@H](CC)O[Si](C(C)C)(C(C)C)C(C)C`, the EC50 was > 200 µM and the IC50 is > 200 µM.

Turning to `CCc1cc(-c2cccc3ccccc23)c(C#N)c(=S)[nH]1`, the EC50 is > 200 µM and the IC50 amounted to 32.4 µM.

In the case of `COc1ccc(C[C@]23CCC(=O)N2CCc2cc(OC)c(O)cc23)cc1O`, the outcome was inactive.

For `CN1C/C(=C\c2ccncc2)C(=O)/C(=C/c2ccncc2)C1`, the EC50 is 52.5 µM and the 50% inhibitory concentration (IC50) is > 200 µM.

For the compound `COc1ccc(C(=C[N+](=O)[O-])c2ccc(OC)cc2)cc1`, the outcome was inactive.

For the compound `S=c1[nH]nc(CNc2ccc(-c3n[nH]c(=S)n3-c3ccc(Cl)cc3)cc2)n1-c1ccc(Cl)cc1`, the EC50 was > 200 µM and the IC50 was 31.6 µM.

`CC(=O)OCC1OC(n2c(C)c(C(C)=O)c(-c3ccco3)c(C#N)c2=S)C(OC(C)=O)C(OC(C)=O)C1OC(C)=O` (centres undefined): the EC50 was > 200 µM; the IC50 was 112 µM and 87.1 µM.

As for `CCN(CC)C(=C(C(Cl)=C(Cl)Cl)[N+](=O)[O-])N(CC)CC`, the EC50 is > 200 µM and the IC50 came to 117 µM.

Consider `COC(=O)C1C2CC3C(C2=O)C31` (centres undefined), for which the EC50 is > 200 µM and the IC50 is > 200 µM.

With `O=c1c(NO)c([N+](=O)[O-])cnn1-c1ccccc1`, the EC50 was > 89.1 µM and the half-inhibitory concentration (IC50) was 0.316 µM.

Regarding `C/C([O-])=C\[P+](c1ccccc1)(c1ccccc1)c1ccccc1`, the EC50 was > 200 µM and the IC50 was found to be 105 µM.

Consider `Cc1cn(C2CC(COCc3ccccc3)N(CCO[Si](C)(C)C(C)(C)C)O2)c(=O)[nH]c1=O` (centres undefined), for which the EC50 was > 200 µM and the IC50 came to 11.5 µM.

For `Cc1cccc(C)c1N=Nc1ccc(O)c(CN(C)C)c1`, the EC50 is > 200 µM and the half-maximal inhibitory concentration (IC50) stood at 39.8 µM.

Take `CN1c2ccccc2C(=O)NC12CCN(Cc1ccccc1)CC2`: the EC50 was > 200 µM and the IC50 worked out at 120 µM.

With `CS1(=O)=NC(=NC#N)c2ccccc21` (centres undefined), the result was inactive.

Regarding `CN1C(=O)C2CCC1n1c(=O)n(-c3ccccc3)c(=O)n12` (centres undefined), the outcome was inactive.

Regarding `CC1CCC2(CO)C(CO)=CCCC2[C@@]1(C)CC/C(=C/CO)CO` (some centres undefined), the outcome was inactive.

Turning to `CCOc1ccc(NC(=O)CC2SC(=Nc3ccc(C)cc3C)NC2=O)cc1` (centres undefined), the EC50 was > 66.1 µM and the IC50 was > 66.1 µM.

On to `Cc1cc(=O)oc2cc(OCc3nc4ccccc4c(=O)o3)ccc12`, for which the outcome was inactive.

Turning to `O=C(O)c1cc(O)c(Br)c(O)c1N=Nc1ccc(/C=C/c2ccc(N=Nc3c(C(=O)O)cc(O)c(Br)c3O)cc2S(=O)(=O)O)c(S(=O)(=O)O)c1`, the EC50 is 166 µM and the IC50 was > 200 µM.

For `CCOC(=O)C1(C)CCCc2sc(N)c(C#N)c21` (centres undefined), the EC50 was > 200 µM and the IC50 was > 200 µM.

Turning to `O=c1c2ccccc2nc(-c2cccc(Cl)c2)n1NCC1(O)OCC(O)C(O)C1O` (centres undefined), the outcome was inactive.

Regarding `C=C1C(=O)OC2CC(C)C3(O)C=C(C(C)=O)C4(OC3CC12)C(=O)OC1CC(C)C(/C=C\C(C)=O)=CCC14` (centres undefined), the EC50 is > 37.2 µM and the IC50 came to 19.1 µM.

Take `CCCNCc1c2c(O)c3c(O)c(C)c4c(c3c1O)C(=O)C(C)(O/C=C/C(OC)C(C)C(OC(C)=O)C(C)C(O)C(C)C(O)C(C)/C=C/C=C(/C)C(=O)N2)O4` (centres undefined): the EC50 is > 200 µM and the concentration for half-maximal inhibition (IC50) came out at 3.8 µM.

As to `CC(=O)NCCSS(=O)(=O)CCCCS(=O)(=O)SCCNC(C)=O`, the half-maximal effective concentration (EC50) was 117 µM and the IC50 turned out to be 214 µM.

As for `O=S(Cc1cc2c(cc1-c1ccccc1)OCO2)c1ccccc1` (centres undefined), the EC50 is > 269 µM and the half-inhibitory concentration (IC50) stood at 9.55 µM.

Consider `C[Si](C)(C)/C=C/CCNC(C#N)c1ccccc1` (centres undefined), for which the EC50 was > 20.4 µM and the half-maximal inhibitory concentration (IC50) is > 20.4 µM.

With `CC(=O)C(CCC(=O)O)(CCC(=O)O)C(C)C`, the EC50 is > 1020 µM and the half-inhibitory concentration (IC50) was > 1020 µM.

For `COc1ccc(C2OCC3C(c4ccc(OC)c(OC)c4)OCC23)cc1OC` (centres undefined), the EC50 was > 200 µM and the IC50 amounted to 97.7 µM.

As for `Cc1ccc(S(=O)(=O)Nn2c3c(cc(C#N)c2=O)CCCCC3)cc1`, the EC50 is > 200 µM and the IC50 was > 200 µM.

In the case of `N#CC(C#N)=c1ccc(=C(C#N)C#N)c2nsnc12`, the EC50 is > 38 µM and the IC50 is > 38 µM.

In the case of `CCOC(=O)CCC1(CCC(=O)OCC)CCCCCCCCC(CCC(=O)OCC)(CCC(=O)OCC)C(=O)C1=O`, the EC50 was > 200 µM and the half-maximal inhibitory concentration (IC50) is > 200 µM.

As for `OC1COC(c2ccccc2)OC1C1OC(c2ccccc2)OC2COC(c3ccccc3)OC21` (centres undefined), the EC50 is > 100 µM and the IC50 was > 100 µM.

Regarding `CCOC(=O)C1=NN(c2ccccc2)C(=O)/C1=C\N1CCNC1=S`, the EC50 was > 135 µM and the 50% inhibitory concentration (IC50) is > 100 µM.

For the compound `CCOC(=O)c1no[n+]([O-])c1C(=O)OCC`, the EC50 is > 200 µM and the IC50 is 5.75 µM.

`CCC(CCl)NC(=O)Nc1ccc(S(=O)(=O)c2ccc([N+](=O)[O-])cc2)cc1` (centres undefined): the EC50 is > 11 µM and the half-maximal inhibitory concentration (IC50) amounted to 8.71 µM.

For the compound `O=c1nc(-c2ccccc2)scc1-c1ccccc1`, the EC50 was > 38 µM and the IC50 was > 38 µM.

As to `CN1CCN(C(=O)CCN2c3ccccc3Sc3ccccc32)CC1`, the EC50 is > 513 µM and the IC50 was found to be 117 µM.

For `CC1OC(OC2C(O)C(O)C(N=C(N)N)C(O)C2N=C(N)N)C(OC2OC(CO)C(O)C(O)C2N(C)N=O)C1(O)C=O` (centres undefined), the outcome was inactive.

In the case of `NCCCCN(CCCN)/[N+]([O-])=N\O`, the EC50 was > 7590 µM and the concentration for half-maximal inhibition (IC50) is 91.2 µM.

Regarding `CCCCn1c(=O)c(N=O)c(N)n(CC)c1=O`, the EC50 was > 200 µM and the IC50 was found to be 174 µM.

Consider `CCOC(=O)C1CSSCC(N)C(=O)N1` (stereo not drawn) (H-Cys-Cys-OEt; disulfide 1-2; configuration not given here), for which the EC50 is > 200 µM and the half-maximal inhibitory concentration (IC50) was > 200 µM.

For `COC(=O)C1C2C=CC(C2)C1(C(=O)OC)S(=O)CC12CCC(CC1O)C2(C)C` (centres undefined), the EC50 is > 229 µM and the IC50 was > 229 µM.

As for `CN1C(=O)[C@@H]2[C@@H]3c4ccccc4N(S(=O)(=O)C(F)(F)F)[C@@H]3c3[nH]c4ccccc4c3[C@@H]2C1=O`, the EC50 is > 200 µM and the 50% inhibitory concentration (IC50) amounted to 9.33 µM.

As for `CC(C)C1=C[C@@]23CCC4C(C)(C)CCC[C@]4(C(=O)O2)C3=CC1=O` (some centres undefined), the EC50 was > 43.7 µM and the IC50 was > 43.7 µM.

Regarding `O=C(N/C(=C\c1ccc(Oc2ccc(Cl)c(Cl)c2)cc1)c1nc2ccccc2[nH]1)c1ccccc1`, the outcome was inactive.

Turning to `COC(=O)CCNC(=O)OCc1ccccc1`, the EC50 was > 200 µM and the IC50 is > 200 µM.

(Values after PubChem BioAssay AID179 (DTP/NCI, 2004).)
